In patent publication US20230167467A1, “METHODS AND COMPOSITIONS FOR THE PRODUCTION OF ISOBUTENE” (University of Alaska Anchorage, priority 2020, published 2023):

Tested on: Engineered strains of E. coli
Type: cell-based
Details: for change in expression of gene adiA / change in expression of gene adiC / change in expression of gene adiY / change in expression of gene bhsA / change in expression of gene bssR / change in expression of gene bssS / change in expression of gene clpA / change in expression of gene clpB / change in expression of gene clpP / change in expression of gene coaA / change in expression of gene coaD / change in expression of gene cspA / change in expression of gene cspB / change in expression of gene cspC / change in expression of gene cspD / change in expression of gene cspE / change in expression of gene cspF / change in expression of gene dhaK / change in expression of gene dhaL / change in expression of gene dnaJ / change in expression of gene dnaK / change in expression of gene fabA / change in expression of gene fabB / change in expression of gene fabD / change in expression of gene flgA / change in expression of gene flgB / change in expression of gene flgC / change in expression of gene flgD / change in expression of gene flgE / change in expression of gene flgF / change in expression of gene flgG / change in expression of gene flgH / change in expression of gene gabD / change in expression of gene gabP / change in expression of gene gabT / change in expression of gene gadA / change in expression of gene gadB / change in expression of gene gadC / change in expression of gene gadE / change in expression of gene gadW / change in expression of gene gadX / change in expression of gene gadY / change in expression of gene glpA / change in expression of gene glpB / change in expression of gene glpC / change in expression of gene groL / change in expression of gene groS / change in expression of gene hchA / change in expression of gene hslJ / change in expression of gene hslO / change in expression of gene hslR / change in expression of gene hslU / change in expression of gene hslV / change in expression of gene ibpA / change in expression of gene ibpB / change in expression of gene lhgO / change in expression of gene lipA / change in expression of gene lipB / change in expression of gene narG / change in expression of gene narH / change in expression of gene narI / change in expression of gene narJ / change in expression of gene narK / change in expression of gene potA / change in expression of gene potB / change in expression of gene potC / change in expression of gene pspA / change in expression of gene pspB / change in expression of gene rpoA / change in expression of gene rpoB / change in expression of gene rpoC / change in expression of gene rpoD / change in expression of gene rpoE / change in expression of gene rpoH / change in expression of gene rpoN / change in expression of gene rpoS / change in expression of gene rpoZ / change in expression of gene spy / change in expression of gene tatA / change in expression of gene tatB / change in expression of gene tatC / change in expression of gene tatD / change in expression of gene tatE: after solvent exposure, vs positive control; for number of genes with significant changes in expression: vs control, Bon Ferroni corrected p-value<0.05

C=CC(C)CC (stereo not drawn) [3-methyl-1-pentene]
expression of acid resistance genes (gad, adi families): downregulated
expression of chaperone proteins groLS, spy, and dnaJK: highly upregulated
expression of dihydroxyacetone kinase genes dhaKLM: upregulated
expression of galactitol metabolism genes gatABD: upregulated
expression of heat shock proteins and chaperones hslJORUV: increased
expression of ibpAB and clpAB (protein protection and repair): increased
expression of marABC (multiple antibiotic resistance): upregulated
expression of nitrate reductase genes narGHJKP: upregulated
expression of phage shock genes pspABCDE: highly upregulated
change in expression of gene adiA: −3.34 ± 0.90
change in expression of gene adiC: −4.45 ± 1.13
change in expression of gene adiY: −4.27 ± 0.72
change in expression of gene bhsA: 4.75 ± 0.60
change in expression of gene bssR: −0.03 ± 0.44
change in expression of gene bssS: 5.81 ± 0.84
change in expression of gene clpA: 3.44 ± 0.63
change in expression of gene clpB: 6.13 ± 0.69
change in expression of gene clpP: 2.17 ± 0.59
change in expression of gene coaA: −1.75 ± 0.90
change in expression of gene coaD: 0.47 ± 0.93
change in expression of gene cspA: −4.30 ± 0.58
change in expression of gene cspB: −3.27 ± 1.33
change in expression of gene cspC: −1.52 ± 0.93
change in expression of gene cspD: 3.11 ± 0.58
change in expression of gene cspE: 0.28 ± 0.63
change in expression of gene cspF: −2.49 ± 1.08
change in expression of gene dhaK: 3.88 ± 0.59
change in expression of gene dhaL: 3.17 ± 0.63
change in expression of gene dnaJ: 6.43 ± 0.69
change in expression of gene dnaK: 4.74 ± 0.66
change in expression of gene fabA: −0.23 ± 0.77
change in expression of gene fabB: 2.75 ± 0.66
change in expression of gene fabD: −0.87 ± 0.53
change in expression of gene flgA: −2.55 ± 1.64
change in expression of gene flgB: −5.95 ± 1.74
change in expression of gene flgC: −5.29 ± 2.06
change in expression of gene flgD: −5.38 ± 2.00
change in expression of gene flgE: −4.38 ± 1.24
change in expression of gene flgF: −3.45 ± 1.66
change in expression of gene flgG: −4.32 ± 1.57
change in expression of gene flgH: −3.08 ± 1.80
change in expression of gene gabD: −0.39 ± 1.37
change in expression of gene gabP: −0.55 ± 1.33
change in expression of gene gabT: −0.74 ± 1.35
change in expression of gene gadA: −3.97 ± 0.90
change in expression of gene gadB: −2.34 ± 0.85
change in expression of gene gadC: −1.88 ± 0.83
change in expression of gene gadE: −5.01 ± 0.68
change in expression of gene gadW: −5.73 ± 1.17
change in expression of gene gadX: −2.89 ± 0.58
change in expression of gene gadY: −4.81 ± 0.90
change in expression of gene glpA: 7.04 ± 0.87
change in expression of gene glpB: 4.86 ± 0.63
change in expression of gene glpC: 5.64 ± 0.80
change in expression of gene groL: 4.37 ± 0.57
change in expression of gene groS: 4.22 ± 0.50
change in expression of gene hchA: 2.03 ± 0.62
change in expression of gene hslJ: 1.02 ± 0.67
change in expression of gene hslO: 3.42 ± 0.64
change in expression of gene hslR: 3.19 ± 0.66
change in expression of gene hslU: 3.91 ± 0.56
change in expression of gene hslV: 3.66 ± 0.61
change in expression of gene ibpA: 9.84 ± 1.21
change in expression of gene ibpB: 11.65 ± 1.50
change in expression of gene lhgO: −1.08 ± 1.80
change in expression of gene lipA: 0.62 ± 0.61
change in expression of gene lipB: 1.26 ± 0.64
change in expression of gene narG: 0.67 ± 0.66
change in expression of gene narH: −0.40 ± 0.65
change in expression of gene narI: −2.41 ± 1.20
change in expression of gene narJ: −0.67 ± 0.73
change in expression of gene narK: 0.15 ± 0.90
change in expression of gene potA: −2.42 ± 0.82
change in expression of gene potB: −1.56 ± 1.33
change in expression of gene potC: −0.61 ± 1.22
change in expression of gene pspA: 10.50 ± 0.55
change in expression of gene pspB: 8.15 ± 0.68
change in expression of gene rpoA: 0.25 ± 0.44
change in expression of gene rpoB: 0.39 ± 0.40
change in expression of gene rpoC: 0.99 ± 0.39
change in expression of gene rpoD: 3.68 ± 0.70
change in expression of gene rpoE: −2.04 ± 0.63
change in expression of gene rpoH: 0.68 ± 0.52
change in expression of gene rpoN: −1.52 ± 0.50
change in expression of gene rpoS: −0.17 ± 0.48
change in expression of gene rpoZ: −1.17 ± 0.55
change in expression of gene spy: 3.35 ± 0.88
change in expression of gene tatA: −1.50 ± 0.52
change in expression of gene tatB: −1.06 ± 0.60
change in expression of gene tatC: −1.33 ± 1.12
change in expression of gene tatD: −2.62 ± 1.19
change in expression of gene tatE: −0.18 ± 0.65
number of genes with significant changes in expression: 540 genes

CCC(C)CC [3-methylpentane]
expression of acid resistance genes (gad, adi families): downregulated
expression of chaperone proteins groLS, spy, and dnaJK: highly upregulated
expression of dihydroxyacetone kinase genes dhaKLM: upregulated
expression of flagellar protein synthesis and assembly genes: downregulated
expression of gadE and adiY: significantly downregulated
expression of galactitol metabolism genes gatABD: upregulated
expression of glpABC (glycerol to glycerone phosphate): upregulated
expression of heat shock proteins and chaperones hslJORUV: strongest increases
expression of ibpAB and clpAB (protein protection and repair): strongest increases
expression of marABC (multiple antibiotic resistance): upregulated
expression of nitrate reductase genes narGHJKP: upregulated
expression of phage shock genes pspABCDE: highly upregulated
change in expression of gene adiA: −2.19 ± 0.86
change in expression of gene adiC: −1.60 ± 1.02
change in expression of gene adiY: −2.88 ± 0.66
change in expression of gene bhsA: 2.98 ± 0.60
change in expression of gene bssR: 1.81 ± 0.44
change in expression of gene bssS: 5.42 ± 0.84
change in expression of gene clpA: 2.69 ± 0.63
change in expression of gene clpB: 5.30 ± 0.69
change in expression of gene clpP: 1.74 ± 0.59
change in expression of gene coaA: −1.35 ± 0.88
change in expression of gene coaD: 1.13 ± 0.90
change in expression of gene cspA: −4.58 ± 0.58
change in expression of gene cspB: −4.38 ± 1.31
change in expression of gene cspC: −2.37 ± 0.90
change in expression of gene cspD: 2.53 ± 0.57
change in expression of gene cspE: −0.36 ± 0.63
change in expression of gene cspF: −3.22 ± 1.04
change in expression of gene dhaK: 4.32 ± 0.58
change in expression of gene dhaL: 3.43 ± 0.62
change in expression of gene dnaJ: 5.07 ± 0.69
change in expression of gene dnaK: 4.55 ± 0.66
change in expression of gene fabA: −0.74 ± 0.75
change in expression of gene fabB: 2.87 ± 0.66
change in expression of gene fabD: −0.97 ± 0.52
change in expression of gene flgA: −1.37 ± 1.53
change in expression of gene flgB: −3.25 ± 1.50
change in expression of gene flgC: −4.33 ± 1.93
change in expression of gene flgD: −3.56 ± 1.87
change in expression of gene flgE: −2.72 ± 1.17
change in expression of gene flgF: −2.66 ± 1.57
change in expression of gene flgG: −3.06 ± 1.48
change in expression of gene flgH: −2.28 ± 1.70
change in expression of gene gabD: 0.24 ± 1.31
change in expression of gene gabP: 1.14 ± 1.28
change in expression of gene gabT: 0.62 ± 1.27
change in expression of gene gadA: −1.66 ± 0.69
change in expression of gene gadB: −1.26 ± 0.80
change in expression of gene gadC: −0.31 ± 0.80
change in expression of gene gadE: −2.58 ± 0.60
change in expression of gene gadW: −2.78 ± 0.95
change in expression of gene gadX: −2.92 ± 0.57
change in expression of gene gadY: −4.93 ± 0.81
change in expression of gene glpA: 8.12 ± 0.87
change in expression of gene glpB: 5.89 ± 0.63
change in expression of gene glpC: 6.69 ± 0.79
change in expression of gene groL: 4.27 ± 0.57
change in expression of gene groS: 4.18 ± 0.50
change in expression of gene hchA: 1.65 ± 0.60
change in expression of gene hslJ: 2.40 ± 0.65
change in expression of gene hslO: 3.37 ± 0.64
change in expression of gene hslR: 3.53 ± 0.65
change in expression of gene hslU: 3.65 ± 0.55
change in expression of gene hslV: 3.32 ± 0.61
change in expression of gene ibpA: 8.01 ± 1.21
change in expression of gene ibpB: 9.01 ± 1.50
change in expression of gene lhgO: 1.21 ± 1.64
change in expression of gene lipA: 0.26 ± 0.60
change in expression of gene lipB: 0.71 ± 0.63
change in expression of gene narG: 4.24 ± 0.65
change in expression of gene narH: 3.41 ± 0.61
change in expression of gene narI: 2.28 ± 0.92
change in expression of gene narJ: 2.34 ± 0.68
change in expression of gene narK: 2.75 ± 0.84
change in expression of gene potA: −2.43 ± 0.80
change in expression of gene potB: −0.51 ± 1.28
change in expression of gene potC: −0.27 ± 1.18
change in expression of gene pspA: 9.23 ± 0.55
change in expression of gene pspB: 7.09 ± 0.68
change in expression of gene rpoA: 0.54 ± 0.44
change in expression of gene rpoB: 0.33 ± 0.40
change in expression of gene rpoC: 0.70 ± 0.39
change in expression of gene rpoD: 3.38 ± 0.70
change in expression of gene rpoE: −2.07 ± 0.62
change in expression of gene rpoH: 0.71 ± 0.52
change in expression of gene rpoN: −1.28 ± 0.49
change in expression of gene rpoS: 0.53 ± 0.47
change in expression of gene rpoZ: −1.07 ± 0.53
change in expression of gene spy: 4.73 ± 0.87
change in expression of gene tatA: −1.05 ± 0.51
change in expression of gene tatB: −0.93 ± 0.58
change in expression of gene tatC: −0.35 ± 1.08
change in expression of gene tatD: −1.73 ± 1.12
change in expression of gene tatE: 0.79 ± 0.63
number of genes with significant changes in expression: 414 genes
